Tests used:
[1] = target: Kappa-type opioid receptor (Cavia porcellus, UniProt P41144); test: Binding affinity of compound was measured on Opioid receptor kappa 1 by competitive inhibition of radioligand [3H]diprenorphine using cloned receptors transiently expressed on COS-7 (monkey kidney) cells; assay type: cell-based
[2] = organism: Cavia porcellus; test: Opioid activity in guinea pig ileum; assay type: functional
[3] = target: Mu-type opioid receptor (Cavia porcellus, UniProt P97266); test: Binding affinity of compound was measured on Opioid receptor mu 1 by competitive inhibition of radioligand [3H]DAMGO using cloned receptors transiently expressed on COS-7 (monkey kidney) cells; assay type: cell-based
[4] = target: Delta-type opioid receptor (Homo sapiens, UniProt P41143); test: Binding affinity of compound was measured on Opioid receptor delta 1 by competitive inhibition of radioligand [3H]DPDPE using cloned receptors transiently expressed on COS-7 (monkey kidney) cells; assay type: cell-based

Structure (SMILES): CC[C@H](C)[C@H](NC(=O)[C@H](CCCNC(=N)N)NC(=O)[C@@H]1CCNC(=O)C[C@@H](NC(=O)CNC(=O)[C@@H](N)Cc2ccc(O)cc2)C(=O)N[C@@H](Cc2ccccc2)C(=O)N[C@@H](CC(C)C)C(=O)N1)C(=O)N[C@@H](CCCNC(=N)N)C(=O)N1CCC[C@H]1C(=O)N[C@@H](CCCCN)C(=O)N[C@@H](CC(C)C)C(=O)N[C@@H](CCCCN)C(N)=O
- Ki [1]: 270 nM
- IC50 [2]: 880 nM
- Ki [3]: 210 nM
- Ki [4]: 1000 nM
